This note sets out measurements from US11427553B2, “Dihydrooxadiazinones” (Bayer Aktiengesellschaft, priority 2017, dated 2022).

One test concerns HMCB cells. Description: Assay 1 cell proliferation measurement, HMCB. The class given is cell-based. Particulars: Homo sapiens, Melanoma, read-out: Anti-proliferation IC50 [nM] HMCB.
The test system of the next test is COLO741 cells. Nature of the test: Assay 1 cell proliferation measurement, COLO741. The class given is cell-based. Particulars: Homo sapiens, COLO-741; Melanoma; read-out: Anti-proliferation IC50 [nM] COLO741.
For another test, the system named is C32 cells. Nature of the test: Assay 1 cell proliferation measurement, C32. The class given is cell-based. Particulars: Homo sapiens, Melanoma, read-out: Anti-proliferation IC50 [nM] C32.
The test system of another test is H4 cells. Description: Assay 1 cell proliferation measurement, H4. The class given is cell-based. Particulars: Homo sapiens; Astrocytoma; read-out: Anti-proliferation IC50 [nM] H4.
In the next test the test system is NCI-H1734 cells. Nature of the test: Assay 1 cell proliferation measurement, NCI-H1734. Particulars: Homo sapiens, Lung, read-out: Anti-proliferation IC50 [nM] NCI-H1734. The class given is cell-based.
A further test has as its system CAL51 cells. Description: Assay 2 cell proliferation measurement, CAL51. The class given is cell-based. Particulars: Homo sapiens, CAL-51, Breast NS, read-out: Anti-proliferation IC50 [nM] CAL51. On the procedure: (§1) Cell Proliferation Measurement
(§2) The antiproliferative activity of the compounds of the general formula (I) was examined in vitro in human cancer cells. For this purpose, 500 cells, including HeLa cells, A2058 cells, DU145 cells, HMCB cells, IGR37 cells, NCIH1734 cells, OSRC2 cells, or 750 cells, including CAL51 cells, COL0741 cells, DBTRG05MG cells, DKMG cells, G292CLONEA141B1 cells, GB1 cells, HEL cells, HEL9217 cells, JHUEM1 cells, L3.3 cells, LI7 cells, TE4 cells, or 1000 cells, including 8505C cells, HUT78 cells, NCIH1563 cells, NCIH2122 cells, NCIH2172 cells, RVH421 cells, SKMEL3 cells, or 1500 cells, including C32 cells, HS578T cells, JHOM1 cells, NCIH196 cells, OVKATE cells, were plated in 384-well plates with appropriate growth medium and incubated at 37° C. overnight. […] After 72 h, the cells were treated with 20 μl/well of 50% CTG solution in PBS (Promega Cell Titer Glo (catalogue #G755B and G756B)) and incubated at room temperature for 10 min, and luminescence was measured by means of a VICTOR V (Perkin Elmer), in order to determine cell viability at the end of treatment. The percentage effect on cell growth and the IC50 derived therefrom were determined for each test substance using the values from untreated wells (=percent viability). The IC50 values were calculated using a 4-parameter fit.

The subject of a further test is NCIH2122 cells. Nature of the test: Assay 2 cell proliferation measurement, NCIH2122. The class given is cell-based. Particulars: Homo sapiens, NCI-H2122, Lung adenocarcinoma, read-out: Anti-proliferation IC50 [nM] NCIH2122. On the procedure:
as §1, §2

In the next test the test system is JHOM1 cells. Description: Assay 2 cell proliferation measurement, JHOM1. The class given is cell-based. Particulars: Homo sapiens, Ovary adenocarcinoma, read-out: Anti-proliferation IC50 [nM] JHOM1. On the procedure: as §1, §2
A further test relates to DU145 cells. Nature of the test: Assay 2 cell proliferation measurement, DU145. The class given is cell-based. Particulars: Homo sapiens, DU-145, Prostate NS, read-out: Anti-proliferation IC50 [nM] DU145. On the procedure: as §1, §2
In test [1] the test system is HEL92.1.7 xenograft (AML). Nature of the test: Assay 3 in vivo xenotransplantation model, HEL92.1.7. Particulars: HEL92.1.7 AML xenograft, mice, 40 mg/kg 2QD p.o.; * P < 0.05 vs control. The source says: (§3) In Vivo Xenotransplantation Models
(§4) The anti-tumor activities of Compounds of examples 135 and 146 were examined in murine xenotransplantation models of human cancer. For this purpose, mice were implanted subcutaneously with tumor cells. At a mean tumor size of 20-40 mm^2 animals were randomized into treatment and control groups (at least n=10 animals/group) and treatment started with vehicle only or respective Compound (formulation: 90% PEG400/10% Ethanol; application route: per os (“p.o.”), orally). The oral application volume was 10 ml/kg. In the case of twice daily treatments, the time interval between two applications per day was 6-7 h. The tumor size and the body weight were determined at least weekly. The tumor area was detected by means of an electronic caliper [length (mm)×width (mm)]. The experiment was ended when the study reached the pre-determined ethical endpoint based on German and European animal welfare regulations. In vivo anti-tumor efficacy is presented as T/C ratio at study end (Treatment/Control; mean tumor weight of treatment group/mean tumor weight of control group) in Table 8. A compound having a T/C below 0.5 is defined as active (i.e., effective). Statistical analysis was assessed using SigmaStat software. A one-way analysis of variance was performed and differences to the control were compared by a pair-wise comparison procedure (Dunn's method).

Test [2] concerns HeLa xenograft (Cervical cancer). Description: Assay 3 in vivo xenotransplantation model, HeLa. Particulars: mice, 5 mg/kg 2QD p.o., * P < 0.05 vs control.
Excerpt: as §3, §4

In test [3] the test system is A2058 xenograft (Melanoma). Nature of the test: Assay 3 in vivo xenotransplantation model, A2058. Particulars: mice, 10 mg/kg 2QD p.o., * P < 0.05 vs control.
Excerpt: as §3, §4

Consider `C[C@@H]1OC(=O)NN=C1c1ccc(-c2ccc(F)cc2)c(C(F)(F)F)c1` [Example 135, (6S)-5-[4′-Fluoro-2-(trifluoromethyl)biphenyl-4-yl]-6-methyl-3,6-dihydro-2H-1,3,4-oxadiazin-2-one], for which the IC50 amounted to 13 nM in the test with HMCB cells, 1 nM with COLO741 cells and 15 nM in the test with C32 cells.

For `O=C1NN=C(c2ccc(-c3ccc(F)cc3)c(C(F)(F)F)c2)CO1` [Example 3, 5-[4′-Fluoro-2-(trifluoromethyl)biphenyl-4-yl]-3,6-dihydro-2H-1,3,4-oxadiazin-2-one], the IC50 in the test on H4 cells is 25 nM; with NCI-H1734 cells, 13 nM; with HMCB cells, 26 nM.

With `O=C1NN=C(c2ccc(-c3cnn(C(F)F)c3)c(C(F)(F)F)c2)CO1` [Example 146, 5-{4-[1-(Difluoromethyl)-1H-pyrazol-4-yl]-3-(trifluoromethyl)phenyl}-3,6-dihydro-2H-1,3,4-oxadiazin-2-one], the IC50 in the test with CAL51 cells was 37 nM; with NCIH2122 cells, 3 nM; with JHOM1 cells, 8 nM; in the test with DU145 cells it was 14 nM. Moreover, the entries for the “T/C (mean final tumor weight treatment / control)” value in test [1], in [2] and in [3] were 0.08*, 0.08* and 0.23*, respectively.
